The values below come from patent US20090023733A1, “Piperidine Derivatives, Their Process for Preparation, Their Use as Therapeutic Agents and Pharmaceutical Compositions Containing Them” (priority 2006, published 2009).

The target of series [1] is T1, human recombinant CCR3 receptors (Homo sapiens, UniProt P51677).
T1 construct: expressed in transfected cells
T1 sequence (P51677 1-355): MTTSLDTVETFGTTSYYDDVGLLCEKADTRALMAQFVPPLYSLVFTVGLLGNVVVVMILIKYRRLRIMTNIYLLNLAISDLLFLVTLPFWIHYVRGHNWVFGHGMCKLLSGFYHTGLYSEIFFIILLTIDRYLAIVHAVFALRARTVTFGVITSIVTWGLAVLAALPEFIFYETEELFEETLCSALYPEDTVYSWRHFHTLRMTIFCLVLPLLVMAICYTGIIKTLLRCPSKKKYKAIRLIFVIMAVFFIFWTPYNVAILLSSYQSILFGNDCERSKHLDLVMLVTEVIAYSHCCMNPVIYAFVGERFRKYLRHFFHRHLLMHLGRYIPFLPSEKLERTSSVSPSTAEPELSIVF
Kind of series: Compound affinity at human recombinant CCR3 receptors by competition of [3H]-4-(2,4-dichloro-3-methylphenoxy)-1'-[4-(methylsulfonyl)benzoyl]-1,4'-bipiperidine, CHO-K1 cell membranes. The format is binding. The note with it: mean pKi (Cheng-Prussof correction of pIC50), minimum of 2 experiments, recombinant human CCR3, 2 nM radioligand, 2 h at 37° C. How it is done:
Determination of Compound Affinity at Human Recombinant CCR3 Receptors Assessed By Competition Of [^3H]-4-(2,4-dichloro-3-methylphenoxy)-1′-[4-(methylsulfonyl)benzoyl]-1,4′-bipiperidine for CHO—K1 Cell Membranes In Vitro
Membranes, prepared from CHO—K1 cells stably expressing recombinant human CCR3, suspended in assay buffer (50 mM Tris-Base, pH 7.4; containing sodium chloride (100 mM) and magnesium chloride (2 mM)) were incubated in the presence of 2 nM [^3H]-4-(2,4-dichloro-3-methylphenoxy)-1′-[4-(methylsulfonyl)benzoyl]-1,4′-bipiperidine, along with vehicle (1% (v/v) DMSO), 4-(4-chloro-3-methylphenoxy)-1′-[2-(methylsulfonyl)benzoyl]-1,4′-bipiperidine (to define non-specific binding) or test compound for 2 h at 37° C. in round bottomed 96-well plates. The plates were then filtered onto GF/B filter plates, pre-soaked for 1 hour in plate-coating solution (0.3% (w/v) polyethylenimine, 0.2% (w/v) BSA in de-ionised water), using a 96-well plate Tomtec cell harvester. Four washes (250 μL) with wash buffer (50 mM Tris-Base, pH 7.4 containing sodium chloride (500 mM) and magnesium chloride (2 mM)) were performed at 4° C. to remove unbound radioactivity. Plates were dried and MicroScint-O (50 μL) was added to each well. The plates were sealed (TopSeal A) and filter-bound radioactivity was measured with a scintillation counter (TopCount, Packard BioScience) using a 1 minute counting protocol.
Specific binding was determined from values of the control wells minus the values for the NSB wells for each assay plate. pIC50 values were calculated using a four parameter logistic fit (where pIC50 is defined as the negative logarithm of the concentration of compound required for 50% reduction in specific [^3H]-4-(2,4-dichloro-3-methylphenoxy)-1′-[4-(methylsulfonyl)benzoyl]-1,4′-bipiperidine binding). Data were presented as mean pKi values (calculated by applying a Cheng-Prussof correction to pIC50 values) from a minimum of 2 separate experiments.

Series [2] can be described thus: Determination of intrinsic clearance with human liver microsomes. The format is in vitro ADME. As to conditions: human liver microsomes 1 mg protein/ml, NADPH, pH 7.4; CLint=ln 2/T1/2. On the procedure:
Determination of Intrinsic Clearance with Human Liver Microsomes
Frozen human liver microsomes (BD Gentest, Oxford) were defrosted and were then diluted with 0.1 M pH 7.4 phosphate buffer at 4° C. to 1 mg protein/ml. 0.45 mL aliquots of the microsome suspension were dispensed into flat-bottomed vials (1 per compound) and were allowed to come to room temperature (5 min). During the warming time, 5 μL of solution of each test compound (typically 100 μM in DMSO) was dispensed into separate vials resulting in a final DMSO concentration of 1%. 50 μL of a 10 mM solution of NADPH in phosphate buffer ([…] pH 7.4, 37° C.) was added to each vial to initiate metabolism.
50 μL Aliquots of the mixtures were removed at measured intervals and were immediately quenched by addition to 100 μL of methanol cooled in ice. The quenched samples were kept cold (at −20° C. or less) for at least 1 h and were then centrifuged to remove protein.
The supernatant solution was analysed using quantitative LCMS for the presence of test compound. From the concentrations of test compound at different time points a T1/2 may be calculated which may be converted to an intrinsic clearance using the equation: CLint=ln 2/T1/2.
Background: Microsomes from liver hold many membrane-bound enzymes, among them those of drug oxidation.

A word on the Ki: it is a measure of affinity in units of concentration, obtained from inhibition or displacement. As a reminder, the CLint scaled is a measure of how fast metabolising enzymes remove a compound, apart from limits set by blood flow. On to `O=C(CSc1ccccc1C(=O)O)NC1CCN(Cc2ccc(Cl)c(Cl)c2)CC1` [Example 1, 2-[(2-{[1-(3,4-Dichlorobenzyl)piperidin-4-yl]amino}-2-oxoethyl)thio]benzoic acid], for which the inhibitory constant (Ki) in series [1] is 0.251 µM. In series [2], this compound displayed an intrinsic metabolic clearance (CLint scaled) at 1 µM of less than 0.18 L/h/kg.
The like results for `O=C(CSc1cccc(C(=O)O)c1)NC1CCN(Cc2ccc(Cl)c(Cl)c2)CC1` [Example 4, 3-[(2-{[1-(3,4-Dichlorobenzyl)piperidin-4-yl]amino}-2-oxoethyl)thio]benzoic acid] were, in that order, 0.0126 µM and less than 0.18 L/h/kg.
`O=C(CSc1ccc(C(=O)O)cc1)NC1CCN(Cc2ccc(Cl)c(Cl)c2)CC1` [Example 7, 4-[(2-{[1-(3,4-Dichlorobenzyl)piperidin-4-yl]amino}-2-oxoethyl)thio]benzoic acid]: the inhibition constant (Ki) in series [1] is 0.00631 µM. Further, the CLint scaled at 1 µM in series [2] was less than 0.18 L/h/kg.
The like results for `O=C(CSc1ccc(C(=O)O)cc1CN1CCOCC1)NC1CCN(Cc2ccc(Cl)c(Cl)c2)CC1` [Example 18, 4-[(2-{[1-(3,4-Dichlorobenzyl)piperidin-4-yl]amino}-2-oxoethyl)thio]-3-(morpholin-4-ylmethyl)benzoic acid] were, in that order, 0.0126 µM and 1.8 L/h/kg.
